Several values for one entry are separate records, joined by “and”; a condition that tells them apart may be missing. Equal values may be shown once.
Assays:
serum PTH [1] = test: Normal rat study: serum PTH level after oral administration; assay type: in vivo; conditions: normal rats
Experimental: (§1) After acclimatization, rats were divided into nine groups (n = 10/group) matched in terms of body weight, and their serum PTH and calcium levels. Vehicle, 0.5% (w/v) methyl cellulose (Wako Pure Chemical Industries, Ltd.) solution orally administered to vehicle treatment group rats. Evocalcet (0.03, 0.1, 0.3, or 1 mg/kg), or cinacalcet (1, 3, 10, or 30 mg/kg) were suspended in the vehicle solution and orally administered to each drug treatment group. Blood samples were collected from the tail vein before and at 0.5, 2, 4, 6, 8, and 24 h after the oral administration.
(§2) The serum PTH level was measured using a Rat Intact PTH ELISA kit (Immutopics, Inc., San Clemente, CA). The serum calcium, phosphate and BUN levels were measured using an auto analyzer (Hitachi High-Technologies Corporation., Tokyo, Japan) or the following test kits: the Calcium E-test WAKO, the Phospha C-test WAKO, or the Blood Urea nitrogen B-test WAKO (Wako Pure Chemical Industries, Ltd., Osaka, Japan).

serum calcium = test: Normal rat study: serum calcium level after oral administration; assay type: in vivo; set-up: Serum Ca: unit not given here; conditions: normal rats
Experimental: as §1, §2

gastric emptying = test: Evaluation of gastric emptying in rats (phenol red); assay type: in vivo, rat
Experimental: The study of gastric emptying in rats was performed by referencing a previously reported method. […] The rats were divided into eight body-weight-matched groups (n = 8/group). […] Ten minutes later, 0.05 w/v% phenol red, a non-absorbable marker solution (1.5 mL/body), was orally administered. Thirty minutes after the administration of phenol red, the rats were euthanized by cervical dislocation, and the gastric body clamped at the cardiac and pyloric part of the stomach was obtained. The stomach was homogenized by adding 0.1 M NaOH and centrifugated. The supernatant was mixed with 20 w/v% trichloroacetic acid. After centrifugation, the supernatant was mixed with the same volume of 0.5 mol/L NaOH, and the absorbance was measured at 560 nm. The gastric emptying rate was calculated by the following formula: […]=[1-(opticaldensity[[…])]×100

serum PTH [2] = test: Serum PTH reduction in common marmosets; assay type: in vivo, common marmoset; set-up: Serum PTH levels: unit not given here
Experimental: The study of effect of evocalcet on emesis in common marmoset was performed by referencing a previously reported method. The marmosets (n = 24) used for this study were housed in cages (460 × 600 × 655 mm) with environmental enrichments (wooden perches, swing, and balls) and acclimated for at least 4 weeks. The marmosets were fasted from evening on the day before administration. […] The serum PTH level was measured using a Porcine Intact PTH ELISA kit (Immutopics, Inc., San Clemente, CA, USA). To evaluate the emetic effects in marmosets, evocalcet (50 or 150 μg/kg) or cinacalcet (1500 or 5000 μg/kg) was orally administered (n = 6/drug, dose down titration, n = 12 in total). The observation of emesis was conducted until 4 h after the administration.

CYP2C19 = molecular target: T1, CYP2C19 (Homo sapiens, UniProt P33261); test: CYP inhibition assay in human liver microsomes; assay type: in vitro ADME; conditions: no pre-incubation, read-out: IC50 direct inhibition of CYP2C19
T1 construct: from tissue; host or cells: human liver microsomes
T1 sequence (P33261 whole entry): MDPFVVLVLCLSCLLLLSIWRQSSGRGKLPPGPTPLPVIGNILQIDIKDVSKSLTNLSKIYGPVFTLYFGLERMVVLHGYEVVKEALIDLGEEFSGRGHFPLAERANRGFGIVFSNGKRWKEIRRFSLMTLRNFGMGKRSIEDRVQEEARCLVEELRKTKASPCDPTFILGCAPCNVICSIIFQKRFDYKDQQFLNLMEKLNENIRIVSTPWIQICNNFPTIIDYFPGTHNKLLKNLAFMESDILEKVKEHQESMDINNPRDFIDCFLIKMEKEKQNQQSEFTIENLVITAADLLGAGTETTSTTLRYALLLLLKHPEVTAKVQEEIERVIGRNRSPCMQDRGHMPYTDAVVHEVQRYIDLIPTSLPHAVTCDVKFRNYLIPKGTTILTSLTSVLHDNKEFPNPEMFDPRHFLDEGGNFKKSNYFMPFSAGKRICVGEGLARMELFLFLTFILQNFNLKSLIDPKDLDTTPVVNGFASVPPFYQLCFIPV
Experimental: (§3) Each CYP substrate was incubated with human liver microsomes in the absence or presence of evocalcet, and the inhibition of evocalcet for each CYP isozyme was measured.

CYP2C9 = molecular target: T2, CYP2C9 (Homo sapiens, UniProt P11712); test: CYP inhibition assay in human liver microsomes; assay type: in vitro ADME; conditions: no pre-incubation, read-out: IC50 direct inhibition of CYP2C9
T2 construct: from tissue; host or cells: human liver microsomes
T2 sequence (P11712 whole entry): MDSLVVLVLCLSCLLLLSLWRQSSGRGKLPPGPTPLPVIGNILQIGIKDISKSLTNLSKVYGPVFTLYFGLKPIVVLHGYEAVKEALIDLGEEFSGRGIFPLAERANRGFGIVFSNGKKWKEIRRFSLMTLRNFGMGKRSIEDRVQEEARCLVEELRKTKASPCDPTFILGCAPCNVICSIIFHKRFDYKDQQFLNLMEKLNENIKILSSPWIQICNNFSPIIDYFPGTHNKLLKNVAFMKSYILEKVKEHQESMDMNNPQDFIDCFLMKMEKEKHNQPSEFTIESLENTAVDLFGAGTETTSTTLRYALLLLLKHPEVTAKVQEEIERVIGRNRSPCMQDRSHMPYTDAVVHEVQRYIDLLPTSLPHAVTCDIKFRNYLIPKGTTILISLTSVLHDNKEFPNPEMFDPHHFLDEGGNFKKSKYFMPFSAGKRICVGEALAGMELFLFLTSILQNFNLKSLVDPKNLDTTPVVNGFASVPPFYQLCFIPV
Experimental: as §3

[3] = evocalcet 0.03 mg/kg oral, 0 h (before administration), group mean, n = 10
[4] = evocalcet 0.03 mg/kg oral, 0 h (before administration), individual rats
[5] = evocalcet 0.03 mg/kg oral, 0.5 h, group mean, n = 10
[6] = evocalcet 0.03 mg/kg oral, 0.5 h, individual rats
[7] = evocalcet 0.03 mg/kg oral, 2 h, group mean, n = 10
[8] = evocalcet 0.03 mg/kg oral, 2 h, individual rats
[9] = evocalcet 0.03 mg/kg oral, 4 h, group mean, n = 10
[10] = evocalcet 0.03 mg/kg oral, 4 h, individual rats
[11] = evocalcet 0.03 mg/kg oral, 6 h, group mean, n = 10
[12] = evocalcet 0.03 mg/kg oral, 6 h, individual rats
[13] = evocalcet 0.03 mg/kg oral, 8 h, group mean, n = 10
[14] = evocalcet 0.03 mg/kg oral, 8 h, individual rats
[15] = evocalcet 0.03 mg/kg oral, 24 h, group mean, n = 10
[16] = evocalcet 0.03 mg/kg oral, 24 h, individual rats
[17] = evocalcet 0.1 mg/kg oral, 0 h (before administration), individual rats
[18] = evocalcet 0.1 mg/kg oral, 0.5 h, individual rats
[19] = evocalcet 0.1 mg/kg oral, 2 h, individual rats
[20] = evocalcet 0.1 mg/kg oral, 4 h, individual rats
[21] = evocalcet 0.1 mg/kg oral, 6 h, individual rats
[22] = evocalcet 0.1 mg/kg oral, 8 h, individual rats
[23] = evocalcet 0.1 mg/kg oral, 24 h, individual rats
[24] = single oral dose, vs vehicle group

## C[C@@H](N[C@H]1CCN(c2ccc(CC(=O)O)cc2)C1)c1cccc2ccccc12 [evocalcet]
Serum PTH [1]; [3]
  Serum PTH: 117.288
Serum PTH [1]; [4]
  Serum PTH: 129.159 and 98.086 and 98.874 and 128.658 and 81.261 and 126.366 and 104.386 and 122.715 and 112.906 and 170.470
Serum PTH [1]; [5]
  Serum PTH: 51.998
Serum PTH [1]; [6]
  Serum PTH: 33.535 and 36.787 and 59.553 and 50.196 and 64.403 and 70.451 and 74.902 and 34.333 and 15.500 and 80.322
Serum PTH [1]; [7]
  Serum PTH: 103.394
Serum PTH [1]; [8]
  Serum PTH: 15.500 and 69.801 and 132.927 and 117.200 and 119.941 and 109.480 and 83.508 and 88.630 and 158.250 and 138.699
Serum PTH [1]; [9]
  Serum PTH: 147.651
Serum PTH [1]; [10]
  Serum PTH: 111.671 and 66.789 and 176.435 and 179.922 and 200.545 and 117.161 and 137.784 and 93.718 and 165.530 and 226.956
Serum PTH [1]; [11]
  Serum PTH: 186.457
Serum PTH [1]; [12]
  Serum PTH: 167.854 and 143.511 and 260.179 and 212.225 and 211.330 and 175.263 and 176.565 and 131.380 and 164.597 and 221.669
Serum PTH [1]; [13]
  Serum PTH: 183.556
Serum PTH [1]; [14]
  Serum PTH: 144.862 and 141.432 and 139.974 and 226.246 and 213.297 and 177.022 and 177.107 and 148.207 and 214.155 and 253.260
Serum PTH [1]; [15]
  Serum PTH: 111.913
Serum PTH [1]; [16]
  Serum PTH: 85.800 and 128.079 and 93.520 and 115.512 and 45.316 and 85.890 and 75.657 and 215.959 and 131.939 and 141.454
Serum PTH [1]; [17]
  Serum PTH: 112.047 and 96.726 and 90.998 and 167.821
Serum PTH [1]; [18]
  Serum PTH: 33.820 and 15.500
Serum PTH [1]; [19]
  Serum PTH: 42.097 and 52.053 and 15.500
Serum PTH [1]; [20]
  Serum PTH: 266.348 and 163.156 and 79.252 and 192.014
Serum PTH [1]; [21]
  Serum PTH: 153.036 and 149.943 and 133.171 and 173.553
Serum PTH [1]; [22]
  Serum PTH: 303.000 and 168.617 and 221.701
Serum PTH [1]; [23]
  Serum PTH: 120.270 and 80.325 and 122.155
Serum PTH [1]; oral
  Strength of pharmacological effect relative to cinacalcet at the same dosage: approximately 30 times
Serum PTH [1]; [24]
  Doses that significantly reduced the serum PTH level: ≥ 0.03 mg/kg
Serum calcium; [3]
  Serum Ca: 10.9
Serum calcium; [4]
  Serum Ca: 10.2 and 11.0 and 11.2 and 10.8
Serum calcium; [5]
  Serum Ca: 11.0
Serum calcium; [6]
  Serum Ca: 10.2 and 10.6 and 11.8 and 10.4 and 11.2 and 11.4
Serum calcium; [7]
  Serum Ca: 10.8
Serum calcium; [8]
  Serum Ca: 10.0 and 11.2 and 10.6 and 10.8 and 11.0 and 10.4
Serum calcium; [9]
  Serum Ca: 10.4
Serum calcium; [10]
  Serum Ca: 10.2 and 10.8 and 10.0 and 10.6 and 10.4
Serum calcium; [11]
  Serum Ca: 10.3
Serum calcium; [12]
  Serum Ca: 10.0 and 10.4 and 10.2 and 10.6
Serum calcium; [13]
  Serum Ca: 10.5
Serum calcium; [14]
  Serum Ca: 9.6 and 10.0 and 8.6 and 10.6 and 11.4 and 10.8 and 12.6
Serum calcium; [15]
  Serum Ca: 10.5
Serum calcium; [16]
  Serum Ca: 10.2 and 10.4 and 10.6 and 10.8
Serum calcium; evocalcet 0.1 mg/kg oral, 0 h (before administration), group mean, n = 10
  Serum Ca: 10.9
Serum calcium; [17]
  Serum Ca: 11.0 and 10.8
Serum calcium; evocalcet 0.1 mg/kg oral, 0.5 h, group mean, n = 10
  Serum Ca: 10.7
Serum calcium; [18]
  Serum Ca: 10.6 and 10.0
Serum calcium; evocalcet 0.1 mg/kg oral, 2 h, group mean, n = 10
  Serum Ca: 10.1
Serum calcium; [19]
  Serum Ca: 10.2 and 10.0 and 9.8
Serum calcium; evocalcet 0.1 mg/kg oral, 4 h, group mean, n = 10
  Serum Ca: 9.8
Serum calcium; [20]
  Serum Ca: 9.8 and 10.0 and 10.2 and 9.6
Serum calcium; evocalcet 0.1 mg/kg oral, 6 h, group mean, n = 10
  Serum Ca: 9.9
Serum calcium; [21]
  Serum Ca: 10.0 and 10.4 and 9.8
Serum calcium; evocalcet 0.1 mg/kg oral, 8 h, group mean, n = 10
  Serum Ca: 10.6
Serum calcium; [22]
  Serum Ca: 10.4 and 10.8 and 10.6
Serum calcium; evocalcet 0.1 mg/kg oral, 24 h, group mean, n = 10
  Serum Ca: 11.6
Serum calcium; [23]
  Serum Ca: 12.6 and 10.8 and 12.0
Serum calcium; evocalcet 0.3 mg/kg oral, 0 h (before administration), individual rats
  Serum Ca: 10.4 and 10.8 and 11.2
Serum calcium; evocalcet 0.3 mg/kg oral, 0.5 h, individual rats
  Serum Ca: 9.6 and 9.4 and 10.4 and 10.0
Serum calcium; evocalcet 0.3 mg/kg oral, 2 h, individual rats
  Serum Ca: 9.0 and 9.2 and 9.4 and 9.8
Serum calcium; evocalcet 0.3 mg/kg oral, 4 h, individual rats
  Serum Ca: 8.8 and 9.6 and 9.4 and 9.8 and 9.2 and 9.0
Serum calcium; evocalcet 0.3 mg/kg oral, 6 h, individual rats
  Serum Ca: 8.6 and 9.8 and 9.6 and 9.4 and 9.0
Serum calcium; evocalcet 0.3 mg/kg oral, 8 h, individual rats
  Serum Ca: 9.8 and 10.4 and 9.4 and 8.8
Serum calcium; evocalcet 0.3 mg/kg oral, 24 h, individual rats
  Serum Ca: 14.8 and 11.4 and 11.0 and 11.2
Serum calcium; [24]
  Doses that significantly reduced the serum calcium level: ≥ 0.1 mg/kg
Gastric emptying; 0.3 mg/kg, group mean
  Gastric Emptying: 67.83%
Gastric emptying; 0.3 mg/kg, individual rats
  Gastric Emptying: 75.29% and 74.04% and 68.43% and 31.88% and 68.64% and 79.44% and 65.73% and 79.23%
Gastric emptying; 1 mg/kg, group mean
  Gastric Emptying: 65.89%
Gastric emptying; 1 mg/kg, individual rats
  Gastric Emptying: 38.94% and 71.96% and 52.65% and 74.45% and 73.42% and 65.94% and 77.15% and 72.59%
Gastric emptying; 3 mg/kg, group mean
  Gastric Emptying: 61.58%
Gastric emptying; 3 mg/kg, individual rats
  Gastric Emptying: 69.47% and 67.19% and 53.48% and 63.03% and 78.82% and 61.16% and 64.49% and 34.99%
Gastric emptying; oral
  Dose (3 mg/kg) without delay of gastric emptying relative to the dose required for a significant PTH reduction: 100 fold
Gastric emptying; oral 0.3, 1 and 3 mg/kg (any dose)
  Effect on gastric emptying: no significant effects
Serum PTH [2]; 5 μg/kg, 1 h, individual animals
  Serum PTH levels: 19.1 and 25.6 and 158.9
Serum PTH [2]; 5 μg/kg, 1 h, mean
  Serum PTH levels: 67.9
Serum PTH [2]; 5 μg/kg, 4 h, individual animals
  Serum PTH levels: 52.9 and 115.9 and 433.3
Serum PTH [2]; 5 μg/kg, 4 h, mean
  Serum PTH levels: 200.7
Serum PTH [2]; 5 μg/kg, before administration, individual animals
  Serum PTH levels: 92.1 and 97.8 and 541.4
Serum PTH [2]; 5 μg/kg, before administration, mean
  Serum PTH levels: 243.8
Serum PTH [2]; 150 μg/kg, 1 h, individual animals
  Serum PTH levels: 36.4 and 52.9 and 258.2
Serum PTH [2]; 150 μg/kg, 1 h, mean
  Serum PTH levels: 115.9
Serum PTH [2]; 150 μg/kg, 4 h, individual animals
  Serum PTH levels: 81.0 and 188.4 and 311.9
Serum PTH [2]; 150 μg/kg, 4 h, mean
  Serum PTH levels: 193.8
Serum PTH [2]; 150 μg/kg, before administration, individual animals
  Serum PTH levels: 57.2 and 203.0 and 236.6
Serum PTH [2]; 150 μg/kg, before administration, mean
  Serum PTH levels: 165.6
Serum PTH [2]; oral
  Minimum effective dose on PTH reduction: 0.005 mg/kg
CYP2C19
  IC50: > 50 µM
CYP2C9
  IC50: > 50 µM
